Paper PMC6797481, “Identification of an allosteric binding site on the human glycine transporter, GlyT2, for bioactive lipid analgesics” (eLife, 2019)
Positions count from the first letter of the chain named.

What was measured:
GlyT2 F428A mutant = target: T1, GlyT2 F428A mutant (Homo sapiens, UniProt Q9Y345, F428A); assay: Glycine transport currents, two electrode voltage clamp, oocytes expressing GlyT2 F428A; type: cell-based; details: GlyT2 F428A; for % Max. inhibition: mean ± SEM
T1 construct: expressed in transfected cells; host or cells: Xenopus laevis oocytes (cRNA injection)
T1 sequence (Q9Y345 1-797 F428A): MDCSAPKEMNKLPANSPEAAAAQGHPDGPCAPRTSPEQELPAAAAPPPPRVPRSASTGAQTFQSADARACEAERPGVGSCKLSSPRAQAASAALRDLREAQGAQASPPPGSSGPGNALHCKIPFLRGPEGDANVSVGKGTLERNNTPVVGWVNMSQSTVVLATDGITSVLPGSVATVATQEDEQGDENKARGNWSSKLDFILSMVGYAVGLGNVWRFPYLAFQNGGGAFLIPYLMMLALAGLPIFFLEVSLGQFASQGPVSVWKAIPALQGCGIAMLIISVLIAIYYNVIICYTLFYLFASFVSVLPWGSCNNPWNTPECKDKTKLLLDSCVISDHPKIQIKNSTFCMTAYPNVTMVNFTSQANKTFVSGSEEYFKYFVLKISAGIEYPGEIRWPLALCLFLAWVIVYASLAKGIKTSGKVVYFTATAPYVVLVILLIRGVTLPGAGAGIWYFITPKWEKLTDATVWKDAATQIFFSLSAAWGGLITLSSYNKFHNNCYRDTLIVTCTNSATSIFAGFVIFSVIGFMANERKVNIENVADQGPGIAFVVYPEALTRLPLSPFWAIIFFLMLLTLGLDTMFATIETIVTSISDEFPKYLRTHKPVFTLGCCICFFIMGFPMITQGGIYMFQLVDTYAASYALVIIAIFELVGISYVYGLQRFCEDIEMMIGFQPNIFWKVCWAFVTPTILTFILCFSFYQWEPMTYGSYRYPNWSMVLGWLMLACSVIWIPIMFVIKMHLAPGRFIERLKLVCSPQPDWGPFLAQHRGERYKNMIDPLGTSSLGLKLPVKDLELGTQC
Procedure: (§1) Glycine was first applied to establish maximal transport current.
(§2) Compounds were tested for inhibition of glycine transport on Xenopus laevis oocytes expressing mutant GlyT1 and GlyT2 transporters. n values are in brackets, with measurements taken from at least 2 batches of oocytes.

GlyT1 WT = tested on: GlyT1 WT; set-up: method as in earlier work; details: previously published; cited from earlier work
GlyT2 WT = target: T2, GlyT2 WT (Homo sapiens, UniProt Q9Y345); set-up: expressed in transfected cells; host or cells: Xenopus laevis oocytes (cRNA injection); details: WT GlyT2, previously published, cited from earlier work; for IC50: mean (95% CI); for GlyT2 % max. inhibition: mean ± SEM
T2 sequence (Q9Y345 1-797): T1 sequence (Q9Y345 1-797 F428A) with A428F

GlyT2 Y550L mutant = target: T3, GlyT2 Y550L mutant (Homo sapiens, UniProt Q9Y345, Y550L); assay: Glycine transport currents, two electrode voltage clamp, oocytes expressing GlyT2 Y550L; type: cell-based; details: GlyT2 Y550L; for IC50: greater than maximum concentration applied (footnote a); for % Max. inhibition: mean ± SEM
T3 construct: expressed in transfected cells; host or cells: Xenopus laevis oocytes (cRNA injection)
T3 sequence (Q9Y345 1-797 Y550L): T1 sequence (Q9Y345 1-797 F428A) with A428F, Y550L
Procedure: as §1, §2

GlyT2 P561S mutant = target: T4, GlyT2 P561S mutant (Homo sapiens, UniProt Q9Y345, P561S); assay: Glycine transport currents, two electrode voltage clamp, oocytes expressing GlyT2 P561S; type: cell-based; details: GlyT2 P561S
T4 construct: expressed in transfected cells; host or cells: Xenopus laevis oocytes (cRNA injection)
T4 sequence (Q9Y345 1-797 P561S): T1 sequence (Q9Y345 1-797 F428A) with A428F, P561S
Procedure: as §1, §2

GlyT2 W563L mutant = target: T5, GlyT2 W563L mutant (Homo sapiens, UniProt Q9Y345, W563L); assay: Glycine transport currents, two electrode voltage clamp, oocytes expressing GlyT2 W563L; type: cell-based; details: GlyT2 W563L
T5 construct: expressed in transfected cells; host or cells: Xenopus laevis oocytes (cRNA injection)
T5 sequence (Q9Y345 1-797 W563L): T1 sequence (Q9Y345 1-797 F428A) with A428F, W563L
Procedure: as §1, §2

% Max. inhibition (GlyT2 Y550L mutant)	IC50 (GlyT2 P561S mutant; mean (95% CI)) [nM]	% Max. inhibition (GlyT2 P561S mutant; mean ± SEM)	IC50 (GlyT2 W563L mutant; mean (95% CI)) [nM]	% Max. inhibition (GlyT2 W563L mutant; mean ± SEM)	Compound	IC50 (GlyT2 F428A mutant) [µM]	% Max. inhibition (% inhibition at the highest concentration of inhibitor used) (GlyT2 F428A mutant; footnote b)	IC50 (GlyT1 WT) [µM]	IC50 (GlyT2 WT) [nM]	GlyT2 % max. inhibition (GlyT2 WT) [%]	IC50 (GlyT2 F428A mutant; mean (95% CI)) [µM]	% Max. inhibition (GlyT2 F428A mutant)	IC50 (GlyT2 Y550L mutant) [µM]
–	–	–	–	–	CCCCC=CCCCCCCCC(=O)NCC(=O)O [C14 ω5 Glycine]	> 30	33.4 ± 3.0^b (p=0.0007) %	> 10	9200	100 ± 7.2	–	–	–
–	–	–	–	–	CCCCCCCCCCC=CCCCC(=O)NCC(=O)O [C16 ω11 Glycine]	–	–	> 10	3400	97.9 ± 2.3	4.81	103 ± 7.7 (p=0.6075) %	–
–	–	–	–	–	CCCCCCCC=CCCCCCCCCC(=O)NCC(=O)O [C18 ω8 Glycine]	> 10	–	> 10	320	61.3 ± 1.7	–	13.2 ± 2.7 (p=0.0001) %	–
–	–	–	–	–	CCCCCCCCCC=CCCCCCCC(=O)NCC(=O)O [C18 ω10 Glycine]	–	–	> 10	340	52.4 ± 2.2	0.776	25.3 ± 5.3 (p=0.0092) %	–
41.1 ± 6.2 (p=0.0115) %	–	–	–	–	CCCCCCCC/C=C\CCCCCCCC(=O)N[C@@H](CC(C)C)C(=O)O [oleoyl l-Leucine]	–	–	> 10	–	72.2 ± 3.8	–	–	–
11.2 ± 1.6 (p=0.0001) %	580	80.3 ± 7.3 (p=0.7241) %	661	62.3 ± 5.3 (p=0.3662) %	CCCCCCCC/C=C\CCCCCCCC(=O)N[C@@H](CO)C(=O)O [oleoyl l-Serine]	–	–	> 3	–	73.1 ± 5.1	–	–	> 3

Compound	% Max. inhibition (GlyT2 Y550L mutant)	IC50 (GlyT2 P561S mutant; mean (95% CI)) [nM]	% Max. inhibition (GlyT2 P561S mutant; mean ± SEM)	IC50 (GlyT2 W563L mutant; mean (95% CI)) [nM]	% Max. inhibition (GlyT2 W563L mutant; mean ± SEM)	IC50 (GlyT2 F428A mutant) [µM]	% Max. inhibition (% inhibition at the highest concentration of inhibitor used) (GlyT2 F428A mutant; footnote b)	IC50 (GlyT1 WT) [µM]	IC50 (GlyT2 WT) [nM]	GlyT2 % max. inhibition (GlyT2 WT) [%]	IC50 (GlyT2 F428A mutant; mean (95% CI)) [µM]	% Max. inhibition (GlyT2 F428A mutant)	IC50 (GlyT2 Y550L mutant) [µM]
CCCCCCCC/C=C\CCCCCCCC(=O)N[C@@H](CCCNC(=N)N)C(=O)O [oleoyl l-Arginine]	9.3 ± 1.4 (p=0.0001) %	–	–	–	–	–	–	> 3	47.9	87.2 ± 3.7	–	–	> 3
